In patent publication US9480677B2, “Enantiomers of spiro-oxindole compounds and their uses as therapeutic agents” (Xenon Pharmaceuticals Inc., priority 2009, dated 2016):

What was measured:
[1] = test system: CFA induced chronic inflammatory pain; assay: CFA induced chronic inflammatory pain, von Frey tactile allodynia; assay type: in vivo, rats; details: for % Increase From Base Line, 8% topical: 8% (w/v) topical
Procedure: In this test, tactile allodynia is assessed with calibrated von Frey filaments. […] Animals were allowed to recover from the anaesthesia and the baseline thermal and mechanical nociceptive thresholds of all animals were assessed one week after the administration of CFA. All animals were habituated to the experimental equipment for 20 minutes on the day prior to the start of the experiment. The test and control articles were administrated to the animals, and the nociceptive thresholds were measured at defined time points after drug administration to determine the analgesic responses to each of the six available treatments. The time points used were previously determined to show the highest analgesic effect for each test compound. […] Each enantiomer was dosed at 10, 30, 100 or 200 mg/Kg. The plasma concentration achieved with each dose was also determined and the reversal of pain response (as the % increase from baseline threshold) is plotted as a function of plasma concentration. The (S)-enantiomer of the invention was also administered topically to the animals in varying dosages (1%, 2%, 4% and 8% (w/v)) and the nociceptive thresholds measured at defined time points after drug administration to determine the analgesic responses to each of the available treatments. The time points used were previously determined to show the highest analgesic effect for each test compound. The response thresholds of the animals to tactile stimuli were measured using the Model 2290 Electrovonfrey anesthesiometer (IITC Life Science, Woodland Hills, Calif.) following the Hargreaves test. The animals were placed in an elevated Plexiglas enclosure set on a wire mesh surface. After 15 minutes of accommodation, a pre-calibrated Von Frey hair was applied perpendicularly to the plantar of the ipsilateral hind paws of the animals, with sufficient force, measured in grams, to elicit a crisp response of the paw. The response indicated a withdrawal from the painful stimulus and constituted the efficacy endpoint. […] This cut off force is used because it represent approximately 10% of the animals' body weight and it serves to prevent raising of the entire limb due to the use of stiffer hairs, which would change the nature of the stimulus. The data were expressed as percent increase from baseline threshold measured in grams.

hNav1.7 = hNav1.7 (Homo sapiens, UniProt Q15858); details: (S)- versus (R)-enantiomer
dental pain = assay: Clinical trial for dental pain after extraction of impacted third molar teeth; assay type: in vivo; details: single 500 mg dose, human subjects
Procedure: The purpose of this clinical trial was to compare the safety and efficacy (onset, duration of relief, and overall efficacy) of a single 500 mg dose of the (S)-enantiomer of the invention versus placebo dose for relief of pain following extraction of impacted third molar teeth.
Sixty-one subjects were enrolled in the study. The mean age for the subjects was 20.4 years, and all subjects were male. The majority of subjects were Caucasians (95.1%).
The severity and relief of the pain was measured using an 11-point Pain Intensity Numerical Rating Scale (graded from 0=no pain at all to 10=worst pain imaginable) (PINRS) and a 5-point Categorical Pain Relief Scale (REL). Subjects completed the PINRS after surgery, but before the administration of (S)-enantiomer of the invention. Efficacy variables were derived from the REL and PINRS scores and included total pain relief (TOTPAR), pain intensity difference (PID), and summed pain intensity difference (SPID) and evaluated at time points of 4, 6, 8, and 12 hours after administration of the (S)-enantiomer of the invention.

[2] = test system: chronic constriction injury neuropathic pain; assay: Neuropathic pain model; chronic constriction injury (CCI); assay type: in vivo; details: topical ointment containing 2% (w/v)
[3] = von Frey mechanical paw withdrawal threshold
[4] = von Frey mechanical paw withdrawal threshold, listed as (S)-enantiomer

Chain of hNav1.7 (Q15858 whole entry): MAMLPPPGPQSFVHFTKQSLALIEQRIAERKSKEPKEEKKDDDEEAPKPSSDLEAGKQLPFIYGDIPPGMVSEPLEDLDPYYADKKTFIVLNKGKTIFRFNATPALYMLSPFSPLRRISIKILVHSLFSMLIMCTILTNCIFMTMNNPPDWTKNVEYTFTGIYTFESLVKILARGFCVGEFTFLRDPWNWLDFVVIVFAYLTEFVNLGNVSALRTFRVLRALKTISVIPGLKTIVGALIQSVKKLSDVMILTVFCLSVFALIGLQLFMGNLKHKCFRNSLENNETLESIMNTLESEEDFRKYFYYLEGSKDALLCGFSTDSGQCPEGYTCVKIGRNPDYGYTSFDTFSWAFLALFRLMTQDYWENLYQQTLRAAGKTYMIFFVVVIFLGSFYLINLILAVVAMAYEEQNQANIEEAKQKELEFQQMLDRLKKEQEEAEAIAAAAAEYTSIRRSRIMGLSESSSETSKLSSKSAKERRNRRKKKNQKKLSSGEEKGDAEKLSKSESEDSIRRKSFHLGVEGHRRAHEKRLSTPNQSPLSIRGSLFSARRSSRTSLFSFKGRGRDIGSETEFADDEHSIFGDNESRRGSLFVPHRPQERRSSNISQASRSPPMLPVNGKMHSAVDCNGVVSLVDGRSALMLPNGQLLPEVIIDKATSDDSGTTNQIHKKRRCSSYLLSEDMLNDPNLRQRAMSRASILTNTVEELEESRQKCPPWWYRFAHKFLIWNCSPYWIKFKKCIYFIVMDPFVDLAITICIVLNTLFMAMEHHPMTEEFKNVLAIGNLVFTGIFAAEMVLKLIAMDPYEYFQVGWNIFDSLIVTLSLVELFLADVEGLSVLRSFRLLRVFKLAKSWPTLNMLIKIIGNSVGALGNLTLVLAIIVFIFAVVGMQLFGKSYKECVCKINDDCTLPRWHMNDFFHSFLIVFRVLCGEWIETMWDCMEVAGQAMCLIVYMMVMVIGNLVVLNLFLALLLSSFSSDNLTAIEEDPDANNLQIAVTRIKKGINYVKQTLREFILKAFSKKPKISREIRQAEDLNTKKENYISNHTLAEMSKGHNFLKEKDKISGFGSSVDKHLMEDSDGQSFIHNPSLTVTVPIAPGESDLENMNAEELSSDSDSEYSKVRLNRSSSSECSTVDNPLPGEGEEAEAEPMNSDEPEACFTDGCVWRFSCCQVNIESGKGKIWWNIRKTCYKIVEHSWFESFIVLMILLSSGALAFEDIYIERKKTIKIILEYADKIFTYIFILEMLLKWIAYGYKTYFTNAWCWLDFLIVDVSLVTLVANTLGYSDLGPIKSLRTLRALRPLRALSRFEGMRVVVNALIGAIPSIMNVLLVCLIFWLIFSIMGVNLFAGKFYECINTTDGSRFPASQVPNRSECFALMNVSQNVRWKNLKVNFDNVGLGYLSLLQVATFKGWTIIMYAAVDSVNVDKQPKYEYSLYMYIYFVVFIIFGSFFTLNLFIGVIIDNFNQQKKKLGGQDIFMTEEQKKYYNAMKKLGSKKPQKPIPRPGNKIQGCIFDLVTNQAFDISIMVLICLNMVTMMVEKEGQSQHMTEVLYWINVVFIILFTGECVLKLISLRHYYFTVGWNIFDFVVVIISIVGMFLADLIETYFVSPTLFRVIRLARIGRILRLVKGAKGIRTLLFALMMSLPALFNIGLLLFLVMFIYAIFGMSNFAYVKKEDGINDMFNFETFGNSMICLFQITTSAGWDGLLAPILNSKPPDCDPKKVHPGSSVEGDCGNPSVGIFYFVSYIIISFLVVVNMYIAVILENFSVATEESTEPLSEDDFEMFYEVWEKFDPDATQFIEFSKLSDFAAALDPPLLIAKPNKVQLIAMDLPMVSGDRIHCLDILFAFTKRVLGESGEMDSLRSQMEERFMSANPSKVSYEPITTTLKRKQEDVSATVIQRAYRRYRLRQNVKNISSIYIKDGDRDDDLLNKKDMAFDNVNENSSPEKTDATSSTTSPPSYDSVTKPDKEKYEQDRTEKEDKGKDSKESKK

O=C1N(Cc2ccc(C(F)(F)F)o2)c2ccccc2[C@]12COc1cc3c(cc12)OCO3 [(I-S), (S)-1′-{[5-(trifluoromethyl)furan-2-yl]methyl}spiro[furo[2,3-f][1,3]benzodioxole-7,3′-indol]-2′(1′H)-one]
maximal effect, reversal of pain response ([1]; oral dosing, 200 mg/Kg, compared with the other enantiomer): greater maximal effect | % Increase From Base Line, 1% topical [1, 3]: 0.62% | % Increase From Base Line, 1% topical [1, 4]: did not demonstrate an observable increase | % Increase From Base Line, 2% topical ([1]; von Frey mechanical paw withdrawal threshold, 2% (w/v) topical): 16.71% | % Increase From Base Line, 4% topical ([1]; von Frey mechanical paw withdrawal threshold, 4% (w/v) topical): 28.79% | % Increase From Base Line, 8% topical [1, 3]: 45.06% | % Increase From Base Line, 8% topical [1, 4]: 45.1% | inhibition potency against hNav1.7 compared to the (R)-enantiomer (hNav1.7): > 1000 fold | onset of action (dental pain): slow onset of action | pain relief compared to placebo (dental pain): higher | primary and all secondary endpoints (TOTPAR, PID, SPID) versus placebo (dental pain): consistent analgesic trend | statistical significance from the placebo (dental pain): not achieved | reversal of pain responses, percent increase from baseline [2]: reversed pain responses
